Measurements as given in PubChem BioAssay (NCI).
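Assay format: 96-well plates, 48-hour exposure. TGI is the concentration that stops growth completely.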

Assays:
Assay in all cases: NCI-60 cell line screen, 48 h
786-0 renal = tested on: 786-0 renal
A498 renal = tested on: A498 renal
A549 NSCLC = tested on: A549 NSCLC
ACHN renal = tested on: ACHN renal
CAKI-1 renal = tested on: CAKI-1 renal
CCRF-CEM leukemia = tested on: CCRF-CEM leukemia
COLO 205 colon = tested on: COLO 205 colon
DLD-1 colon = tested on: DLD-1 colon
DMS 114 small cell lung = tested on: DMS 114 small cell lung
EKVX NSCLC = tested on: EKVX NSCLC
HCT-116 colon = tested on: HCT-116 colon
HCT-15 colon = tested on: HCT-15 colon
HL-60(TB) leukemia = tested on: HL-60(TB) leukemia
HOP-18 NSCLC = tested on: HOP-18 NSCLC
HOP-62 NSCLC = tested on: HOP-62 NSCLC
HOP-92 NSCLC = tested on: HOP-92 NSCLC
HT29 colon = tested on: HT29 colon
IGROV1 ovarian = tested on: IGROV1 ovarian
K-562 leukemia = tested on: K-562 leukemia
KM12 colon = tested on: KM12 colon
KM20L2 colon = tested on: KM20L2 colon
LOX IMVI melanoma = tested on: LOX IMVI melanoma
LXFL 529 NSCLC = tested on: LXFL 529 NSCLC
M14 melanoma = tested on: M14 melanoma
M19-MEL melanoma = tested on: M19-MEL melanoma
MALME-3M melanoma = tested on: MALME-3M melanoma
MOLT-4 leukemia = tested on: MOLT-4 leukemia
NCI-H226 lung = tested on: NCI-H226 lung
NCI-H23 lung = tested on: NCI-H23 lung
NCI-H460 lung = tested on: NCI-H460 lung
NCI-H522 lung = tested on: NCI-H522 lung
OVCAR-3 ovarian = tested on: OVCAR-3 ovarian
OVCAR-5 ovarian = tested on: OVCAR-5 ovarian
OVCAR-8 ovarian = tested on: OVCAR-8 ovarian
RPMI-8226 leukemia = tested on: RPMI-8226 leukemia
RXF 393 renal = tested on: RXF 393 renal
RXF-631 renal = tested on: RXF-631 renal
SF-268 CNS = tested on: SF-268 CNS
SF-295 CNS = tested on: SF-295 CNS
SF-539 CNS = tested on: SF-539 CNS
SK-MEL-2 melanoma = tested on: SK-MEL-2 melanoma
SK-MEL-28 melanoma = tested on: SK-MEL-28 melanoma
SK-MEL-5 melanoma = tested on: SK-MEL-5 melanoma
SK-OV-3 ovarian = tested on: SK-OV-3 ovarian
SN12C renal = tested on: SN12C renal
SNB-19 CNS = tested on: SNB-19 CNS
SNB-75 CNS = tested on: SNB-75 CNS
SNB-78 CNS = tested on: SNB-78 CNS
SR leukemia = tested on: SR leukemia
TK-10 renal = tested on: TK-10 renal
U251 CNS = tested on: U251 CNS
UACC-257 melanoma = tested on: UACC-257 melanoma
UACC-62 melanoma = tested on: UACC-62 melanoma
UO-31 renal = tested on: UO-31 renal
XF 498 CNS = tested on: XF 498 CNS
DMS 273 small cell lung = tested on: DMS 273 small cell lung
SW-620 colon = tested on: SW-620 colon

Measured: TGI

O=C(O)C12C3CCCC1C2CC3 (centres undefined)
not listed: DMS 273 small cell lung | SW-620 colon
> 100 µM: all other assays above

CCOC(=O)C(=O)Nc1c(N(CC)CC)n2ccccc2nc1=O
not listed: HL-60(TB) leukemia | HOP-18 NSCLC | LOX IMVI melanoma | RXF 393 renal | SF-295 CNS | SK-MEL-28 melanoma | TK-10 renal | UACC-257 melanoma
> 100 µM: all other assays above
